The values below come from patent US9399649B2, “Compounds for treating spinal muscular atrophy” (PTC Therapeutics Inc., priority 2012, dated 2016).

In data set [1] the test system is full length SMN2 minigene mRNA containing SMN2 exon 7. The data set can be described thus: SMN2 minigene mRNA splicing RT-qPCR assay in cultured cells. The data set is classed as cell-based, human. To be noted: Homo sapiens, HEK293-H; HEK293H cells stably transfected with SMN2-A minigene, 24 hours, 7-point concentration curve; concentration giving 1.5-fold full length SMN2 mRNA vs vehicle; read-out: EC1.5x for production of full length SMN2 mRNA. In outline:
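Read-out is minigene FL mRNA (exon 7 included) relative to vehicle, from efficiency-corrected ΔΔCt with GAPDH normalisation. Primers and probe span exon 7, exon 8 and luciferase, so endogenous SMN is not detected. Stable SMN2-A minigene HEK293H cells, 24 h compound exposure at 37 °C, 7-point curve in duplicate.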
A general note: In qPCR the cycle at which signal appears reflects the starting amount.

The next data set deals with Smn protein. The data set can be described thus: Smn protein assay in cultured cells (SMN HTRF). The data set is classed as cell-based, human. To be noted: SMA patient fibroblast cells (GM03813), 48 hours; for EC1.5x for Smn protein expression: 7-point concentration curve, concentration producing 1.5 times Smn protein vs DMSO vehicle; for maximum fold (Fold) increase of Smn protein: 7-point concentration data, relative to vehicle control. The essentials: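 Smn protein measured by HTRF (anti-SMN d2/kryptate) in lysates of SMA patient fibroblasts after 48 h compound treatment, 7-point 3.16-fold dilutions, triplicates. The 665/620 nm ratio is blank-corrected to ΔF, then divided by the vehicle ΔF to give fold increase.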
On the technique in general: TR-FRET usually uses a lanthanide donor and a delayed reading to cut background.

Regarding `Cc1cn2cc(-c3cc4ccc(N5CCN[C@@H](C)C5)cc4c(=O)o3)nc2c(C)n1` [Cpd 63, 3-(6,8-dimethylimidazo[1,2-a]pyrazin-2-yl)-7-[(3S)-3-methylpiperazin-1-yl]-1H-isochromen-1-one], the melting point (in general, the temperature, or range, at which the solid turns liquid) fell in the range of 325 to 327 °C. In addition, the EC (1.5-fold) in data set [1] was ≤ 0.1 µM. Also, in the data set with Smn protein, the “EC1.5x for Smn protein expression” value is recorded as “**** (an EC1.5×≦0.3 nM is indicated by four stars (****))” and the “maximum fold (Fold) increase of Smn protein” value (“maximum fold (Fold) increase” for short) is “***** (a fold increase >1.65 is indicated by five stars (*****))”.
As to `COc1ccccc1-c1cc2ccc(N3CCN(C)CC3)cc2c(=O)o1` [Cpd 22, 3-(2-methoxyphenyl)-7-(4-methylpiperazin-1-yl)-1H-isochromen-1-one], the melting point is 118 to 120 °C. The EC (1.5-fold) in data set [1] was 1 to 3 µM. In addition, the “maximum fold (Fold) increase” value with Smn protein is listed as “* (A maximum fold increase of ≦1.2 is indicated by one star (*))”.
In turn, `Cc1cn2cc(-c3cc4ccc(N5CCN(C(C)C)[C@@H](C)C5)cc4c(=O)o3)nc2c(C)n1` [Cpd 138, 3-(6,8-dimethylimidazo[1,2-a]pyrazin-2-yl)-7-[(3S)-3-methyl-4-(propan-2-yl)piperazin-1-yl]-1H-isochromen-1-one] displayed a melting point of 266 to 271 °C. Also, in data set [1], the EC (1.5-fold) lay in the range of 0.1 to 0.3 µM. Moreover, in the data set with Smn protein, the “EC1.5x for Smn protein expression” value was “*** (an EC1.5× between >0.3 nM and ≦1 nM is indicated by three stars (***))”; the “maximum fold (Fold) increase” value is “**** (a fold increase between >1.5 and ≦1.65 is indicated by four stars (****))”.
Regarding `O=c1oc(-c2ccsc2)cc2ccc(N3CCNCC3)cc12` [Cpd 2, 7-(piperazin-1-yl)-3-(thiophen-3-yl)-1H-isochromen-1-one], the melting point was 240 °C (dec.). Further, in data set [1], the EC (1.5-fold) lay in the range of 0.3 to 1 µM. Also, the “maximum fold (Fold) increase” value in the data set with Smn protein is “** (a fold increase between >1.2 and ≦1.35 is indicated by two stars (**))”.
In turn, `COc1ccc(-c2cc3ccc(N4CCN(C)[C@@H](C)C4)cc3c(=O)o2)cc1OC` [Cpd 67, 3-(3,4-dimethoxyphenyl)-7-[(3S)-3,4-dimethylpiperazin-1-yl]-1H-isochromen-1-one] returned a melting point of 138 to 140 °C. Further, the EC (1.5-fold) in data set [1] was in the range of 0.3 to 1 µM. Further, in the data set on Smn protein, the “EC1.5x for Smn protein expression” value is “** (an EC1.5× between >1 μM, and ≦3 nM is indicated by two stars (**))”; the “maximum fold (Fold) increase” value is “*** (a fold increase between >1.35 and ≦1.5 is indicated by three stars (***))”.
`COc1ccc(-c2cc3ccc(N4CCN[C@@H](C)C4)cc3c(=O)o2)cc1OC` [Cpd 30, 3-(3,4-dimethoxyphenyl)-7-[(3S)-3-methylpiperazin-1-yl]-1H-isochromen-1-one] gave a melting point of 155 to 157 °C. Moreover, the EC (1.5-fold) in data set [1] was ≤ 0.1 µM. In addition, in the data set with Smn protein, the “EC1.5x for Smn protein expression” value is “**** (an EC1.5×≦0.3 nM is indicated by four stars (****))”; the “maximum fold (Fold) increase” value is “**** (a fold increase between >1.5 and ≦1.65 is indicated by four stars (****))”.
In turn, `COc1ccc(-c2cc3ccc(N4CCN[C@@H](C)C4)cc3c(=O)o2)c(F)c1` [Cpd 45, 3-(2-fluoro-4-methoxyphenyl)-7-[(3S)-3-methylpiperazin-1-yl]-1H-isochromen-1-one] yielded a melting point of 167 to 168 °C. In addition, in data set [1], the EC (1.5-fold) was in the range of 0.1 to 0.3 µM. In addition, the “maximum fold (Fold) increase” value with Smn protein is “*** (a fold increase between >1.35 and ≦1.5 is indicated by three stars (***))”.
With `Cc1cn2cc(-c3cc4ccc(C5=CCNCC5)cc4c(=O)o3)nc2c(C)n1` [Cpd 88, 3-(6,8-dimethylimidazo[1,2-a]pyrazin-2-yl)-7-(1,2,3,6-tetrahydropyridin-4-yl)-1H-isochromen-1-one], the melting point was 266 °C (dec.). In data set [1], the EC (1.5-fold) was ≤ 0.1 µM. In the data set on Smn protein, the “EC1.5x for Smn protein expression” value is reported as “**** (an EC1.5×≦0.3 nM is indicated by four stars (****))”; the “maximum fold (Fold) increase” value was “**** (a fold increase between >1.5 and ≦1.65 is indicated by four stars (****))”.
`Cc1nc2ccc(-c3cc4ccc(N5CCN(C(C)C)CC5)cc4c(=O)o3)cc2s1` [Cpd 105, 3-(2-methyl-1,3-benzothiazol-6-yl)-7-[4-(propan-2-yl)piperazin-1-yl]-1H-isochromen-1-one] displayed a melting point of 222 to 228 °C. Besides, the EC (1.5-fold) in data set [1] lay in the range of 0.1 to 0.3 µM. The “maximum fold (Fold) increase” value in the data set with Smn protein is “** (a fold increase between >1.2 and ≦1.35 is indicated by two stars (**))”.
Turning to `Cc1cn2cc(-c3cc4ccc(N5CCN(C)[C@@H](C)C5)cc4c(=O)o3)nc2cn1` [Cpd 121, 7-[(3S)-3,4-dimethylpiperazin-1-yl]-3-(6-methylimidazo[1,2-a]pyrazin-2-yl)-1H-isochromen-1-one], the melting point is 250 to 255 °C. The EC (1.5-fold) in data set [1] is ≤ 0.1 µM. Moreover, in the data set with Smn protein, the “EC1.5x for Smn protein expression” value was “**** (an EC1.5×≦0.3 nM is indicated by four stars (****))” and the “maximum fold (Fold) increase” value is given as “***** (a fold increase >1.65 is indicated by five stars (*****))”.
With `Cc1cn2cc(-c3cc4ccc(N5CCN(C)[C@H](C)C5)cc4c(=O)o3)nc2cn1` [Cpd 127, 7-[(3R)-3,4-dimethylpiperazin-1-yl]-3-(6-methylimidazo[1,2-a]pyrazin-2-yl)-1H-isochromen-1-one], the melting point fell in the range of 243 to 248 °C. In addition, the EC (1.5-fold) in data set [1] was ≤ 0.1 µM. In the data set with Smn protein, the “EC1.5x for Smn protein expression” value was “**** (an EC1.5×≦0.3 nM is indicated by four stars (****))” and the “maximum fold (Fold) increase” value was “***** (a fold increase >1.65 is indicated by five stars (*****))”.
The compound `Cc1cn2cc(-c3cc4ccc(C5CCNCC5)cc4c(=O)o3)nc2c(C)n1` [Cpd 96, 3-(6,8-dimethylimidazo[1,2-a]pyrazin-2-yl)-7-(piperidin-4-yl)-1H-isochromen-1-one] had a melting point of 218 to 220 °C. Also, in data set [1], the EC (1.5-fold) is ≤ 0.1 µM. In the data set on Smn protein, the “EC1.5x for Smn protein expression” value was “**** (an EC1.5×≦0.3 nM is indicated by four stars (****))” and the “maximum fold (Fold) increase” value was “***** (a fold increase >1.65 is indicated by five stars (*****))”.
`CCN1CCN(c2ccc3cc(-c4cn5cc(Cl)nc(C)c5n4)oc(=O)c3c2)CC1` [Cpd 102, 3-(6-chloro-8-methylimidazo[1,2-a]pyrazin-2-yl)-7-(4-ethylpiperazin-1-yl)-1H-isochromen-1-one] gave a melting point of 229 to 234 °C. In data set [1], the EC (1.5-fold) was in the range of 0.1 to 0.3 µM. Further, the “maximum fold (Fold) increase” value in the data set on Smn protein is “*** (a fold increase between >1.35 and ≦1.5 is indicated by three stars (***))”.
For the compound `COc1cc(-c2cc3ccc(N4CCN[C@@H](C)C4)cc3c(=O)o2)ccc1F` [Cpd 47, 3-(4-fluoro-3-methoxyphenyl)-7-[(3S)-3-methylpiperazin-1-yl]-1H-isochromen-1-one], the melting point is 118 to 120 °C. Also, the EC (1.5-fold) in data set [1] was in the range of 3 to 30 µM. In addition, the “maximum fold (Fold) increase” value in the data set with Smn protein was “* (A maximum fold increase of ≦1.2 is indicated by one star (*))”.
The corresponding values for `C[C@H]1CN(c2ccc3cc(-c4ccc5c(c4)OCCO5)oc(=O)c3c2)CCN1` [Cpd 35, 3-(2,3-dihydro-1,4-benzodioxin-6-yl)-7-[(3S)-3-methylpiperazin-1-yl]-1H-isochromen-1-one] are 175 to 177 °C, 0.3 to 1 µM and “* (A maximum fold increase of ≦1.2 is indicated by one star (*))”.
